According to paper PMC6216040, “Repurposing of an old drug: In vitro and in vivo efficacies of buparvaquone against Echinococcus multilocularis” (International Journal for Parasitology: Drugs and Drug …, 2018):
Read-outs that look alike come from different tables or passages of the source.

Tested on: E. multilocularis metacestodes
Test: PGI-assay: drug-induced damage on in vitro cultured metacestodes (Pathogen Box screening cascade and EC50)
Format: cell-based, Echinococcus multilocularis
Conditions: for PGI release, % of the Tx-100 control, 5d / PGI release, % of the Tx-100 control, 12d / cytotoxicity at 10 µM: 10 µM, singlets; for cytotoxicity at 10 µM: Echinococcus multilocularis; for activity in the screen at 10 μM (confirmed in triplicates, >20% relative PGI release): 5 and 12 days
[1] = 120 h, 5 days of incubation, read-out: PGI release, % of the Tx-100 control, 5d
[2] = 288 h, 12 days of incubation, read-out: PGI release, % of the Tx-100 control, 12d
[3] = confirmatory screening at 10 µM in triplicates, 5 days of incubation, values as % of Tx-100 control
[4] = confirmatory screening at 10 µM in triplicates, 12 days of incubation, values as % of Tx-100 control
[5] = 1 µM, triplicates, 5 days of incubation
[6] = 1 µM, triplicates, 12 days of incubation

SMILES | PGI release, % of the Tx-100 control, 5d (5 days of incubation) [%] | PGI release, % of the Tx-100 control, 12d (12 days of incubation) [%] | also measured
O=C(Nc1cnc2ccccc2c1)c1cccc(-n2cnnn2)c1 [MMV084864] | -2.18 | -3.92 | 
COc1ccc(OC)c(NCc2ccc3nc(N)nc(N)c3c2Cl)c1 [MMV675968] | -0.10 | 8.05 | 
Cc1cc(Nc2ccncc2)n2nc(C)c(-c3ccccc3Cl)c2n1 [MMV016136] | 0.97 | 2.16 | 
Nc1c2c(nc3sc4c(c13)CCCC4)CCCC2 [MMV676588] | -0.72 | 10.95 | 
Cc1ccccc1C(=O)N1NC(=Nc2ccccc2)SC1(C)C [MMV688771] | -0.49 | -1.69 | 
Cn1ncc2c(N3CCOCC3)nc(NCCc3c[nH]c4ccccc34)nc21 [MMV676382] | 0.80 | -0.14 | 
COc1ccc(-c2cc(NC(=O)c3ccc(F)cc3Cl)ccc2OC)cc1 [MMV676526] | 1.97 | -2.37 | 
O=C(Nc1cccc(Cl)c1)c1cnc(N2CCN(c3ccncc3)CC2)c(Cl)c1 [MMV024406] | 4.18 | 4.57 | 
CC1COC(Cn2cncn2)(c2ccc(Oc3ccc(Cl)cc3)cc2Cl)O1 (stereo not shown) [MMV688943, Difenoconazol] | -4.96 | -0.86 | 
CCc1nc2ccc(Cl)cn2c1C(=O)NCc1ccc(N2CCC(c3ccc(OC(F)(F)F)cc3)CC2)cc1 [MMV687696, Telacebec, Q203, reference compound] | -1.48 | 7.51 | 
O=C(c1n[nH]c2c1CCCC2)N1CCN(Cc2ccc3c(c2)OCO3)CC1 [MMV676389] | 1.07 | 3.62 | 
Cn1ccnc1CNCCS(=O)(=O)c1cccc(Nc2ccc(-c3cccc(F)c3)cn2)c1 [MMV688466] | -0.60 | -2.11 | 
Cc1cc(NCCc2ccccc2)nc(NC(=N)Nc2ccc(Cl)cc2)n1 [MMV021660] | 5.66 | 4.49 | 
Cc1ccc(S(=O)(=O)N2CCN(C(=O)c3cc(-c4ccccc4)n[nH]3)CC2)cc1 [MMV019742] | 0.16 | 0.57 | 
CCC(C)NC(=O)c1ccc(NC(=O)C2(c3ccccc3)CCCC2)cc1 (stereo not shown) [MMV146306] | -1.42 | -5.77 | 
CCS(=O)(=O)N(Cc1ccco1)Cc1cc2ccc(C)cc2[nH]c1=O [MMV676398] | -0.33 | 4.91 | 
NCC[C@H](O)C(=O)N[C@@H]1C[C@H](N)[C@@H](O[C@H]2O[C@H](CN)[C@@H](O)[C@H](O)[C@H]2O)[C@H](O)[C@H]1O[C@H]1O[C@H](CO)[C@@H](O)[C@H](N)[C@H]1O [MMV687796, Amikacin, reference compound] |  |  | cytotoxicity at 10 µM [1]: -1.34%; cytotoxicity at 10 µM [2]: -4.62%
Cc1nn(C)c(C)c1NS(=O)(=O)c1c(Cl)cc(-c2ccnc(N3CCNCC3)c2)cc1Cl [MMV688180] | -0.14 | 0.11 | 
COc1ccc(N(CCc2cccc(C)n2)C(C)=O)cc1 [MMV675995] | 1.72 | 1.78 | 
CN1CCN(c2nccc3nc(-c4ccc(F)c(F)c4)[nH]c23)CC1 [MMV676260] | 0.28 | 0.56 | 
C[C@H]1c2cccc(O)c2C(=O)C2=C(O)[C@]3(O)C(=O)C(C(N)=O)=C(O)[C@@H](N(C)C)[C@@H]3[C@@H](O)[C@@H]21 [MMV000011, Doxycycline, reference compound] |  |  | cytotoxicity at 10 µM [1]: 3.26%; cytotoxicity at 10 µM [2]: -0.0343%
CC(=O)N1CCN(c2ccc(Oc3ccc(Cl)cc3O)cc2)CC1 [MMV688330] | -0.72 | -5.52 | 

SMILES | PGI release, % of the Tx-100 control, 5d (5 days of incubation) [%] | PGI release, % of the Tx-100 control, 12d (12 days of incubation) [%] | also measured
CC1=NN(c2nc3ccccc3s2)C(=O)C1Cc1cccc2ccccc12 (stereo not shown) [MMV676558] | 13.65 | 78.65 | PGI release, % of Tx-100 control, average, 5d [3]: -0.26%; PGI release, % of Tx-100 control, average, 12d [4]: 0.35%
COc1cccc(-n2nnnc2S(C)(=O)=O)c1 [MMV272144] | -0.69 | 0.11 | 
O=C(Nc1nnc(-c2ccc(Cl)s2)o1)c1ccc(Cl)s1 [MMV676501] | 1.15 | 0.52 | 
O=C(Nc1nc(-c2ccccn2)cs1)C1CC1c1ccccc1F (stereo not shown) [MMV1028806] | -2.32 | -0.32 | 
CC(C)n1nc(-c2cc3c(Cl)cccc3[nH]2)c2c(N)ncnc21 [MMV688417] | -4.81 | -2.43 | 
CC1=Nc2ccc(Cl)cc2C(c2ccccc2)N1CCNC(=O)CN(C)C (stereo not shown) [MMV688410] | 0.08 | -1.09 | 
Nc1ncc(-c2ccc(C(F)(F)F)nc2)cc1-c1ccc(C(F)(F)F)nc1 [MMV668727] | -0.66 | -0.51 | 
CC(Oc1cccc(Cl)c1)C(=O)Nc1ccc2oc(-c3ccncc3)nc2c1 (stereo not shown) [MMV688472] | -0.36 | 0.44 | 
O=C(Cn1ccnc1[N+](=O)[O-])NCc1ccccc1 [MMV688773, Benznidazole, reference compound] |  |  | cytotoxicity at 10 µM [1]: -0.2%; cytotoxicity at 10 µM [2]: 1.37%
CNc1snc(C)c1C(=O)NCCOc1ccc(OC)cc1 [MMV688554] | -1.97 | 1.18 | 
CCOc1ccccc1NC(C)C(=O)Nc1cc(C(F)(F)F)ccc1N1CCOCC1 (stereo not shown) [MMV407834] | -0.40 | -0.68 | 
Cc1ccc(S(=O)(=O)n2cc(-c3ccnc(N)c3)c3cc(Br)cnc32)cc1 [MMV024114] | 3.26 | 5.70 | 
COc1ccc2nc(C)cc(OCC(=O)NCc3ccccc3)c2c1 [MMV687189] | -4.79 | 3.07 | 
c1coc(CNc2nc(N3CCCCC3)nc3ccccc23)c1 [MMV676401] | -3.33 | 41.40 | PGI release, % of Tx-100 control, average, 5d [3]: -0.0357%; PGI release, % of Tx-100 control, average, 12d [4]: -0.23%
CCCCOC(=O)Nc1cc2[nH]c(C3CCCCC3)nc2cc1N1CCCC1 [MMV687730] | 5.43 | 56.57 | PGI release, % of Tx-100 control, average, 5d [5]: 3.65%; PGI release, % of Tx-100 control, average, 12d [6]: -3.14%; activity in the screen at 10 μM (confirmed in triplicates, >20% relative PGI release): active; PGI release, % of Tx-100 control, average, 5d [3]: 22.60%; PGI release, % of Tx-100 control, average, 12d [4]: 45.66%
CC(C)(C)C(=O)N(CCCCCCN1C[C@H](O)[C@@H](O)[C@H](O)[C@H]1CO)C1CCCCCC1 [MMV688543] | -1.12 | -4.43 | 
CCOC(=O)NC(=O)c1ccsc1NC(=O)c1nc2ccccc2s1 [MMV090930] | 11.85 | 28.09 | PGI release, % of Tx-100 control, average, 5d [5]: 2.46%; PGI release, % of Tx-100 control, average, 12d [6]: 6.26%; activity in the screen at 10 μM (confirmed in triplicates, >20% relative PGI release): active; PGI release, % of Tx-100 control, average, 5d [3]: 13.69%; PGI release, % of Tx-100 control, average, 12d [4]: 46.13%
COc1ccccc1CNC(=O)c1cc(C2CC2)nc2c1cnn2C(C)C [MMV020517] | -0.60 | -1.00 | 
Cc1ccc2cc(C3NC(=O)c4ccccc4N3)c(Cl)nc2c1 (stereo not shown) [MMV019807] | 1.08 | 2.05 | 
NC(N)=Nc1ccc(-c2ccc(-c3ccc(N=C(N)N)cc3Cl)o2)c(Cl)c1 [MMV688179] | -4.57 | 19.83 | 
CCOC(=O)c1cc(-c2csc(Nc3c(C)cc(C)cc3C)n2)on1 [MMV676461] | 0.19 | -0.25 | 
